Laboratory results published in US12091411B2, “IRAK degraders and uses thereof” (Kymera Therapeutics, Inc., priority 2022, dated 2024).
Read-outs that look alike come from different tables or passages of the source.

Biological target: T1, IRAK4 (Homo sapiens, UniProt Q9NWZ3)
T1 construct: Degradation of IRAK4 in OCI-LY10 was quantitatively measured using Meso Scale Discovery technology; endogenous in cells; host or cells: OCI-LY10
T1 sequence (Q9NWZ3 1-460): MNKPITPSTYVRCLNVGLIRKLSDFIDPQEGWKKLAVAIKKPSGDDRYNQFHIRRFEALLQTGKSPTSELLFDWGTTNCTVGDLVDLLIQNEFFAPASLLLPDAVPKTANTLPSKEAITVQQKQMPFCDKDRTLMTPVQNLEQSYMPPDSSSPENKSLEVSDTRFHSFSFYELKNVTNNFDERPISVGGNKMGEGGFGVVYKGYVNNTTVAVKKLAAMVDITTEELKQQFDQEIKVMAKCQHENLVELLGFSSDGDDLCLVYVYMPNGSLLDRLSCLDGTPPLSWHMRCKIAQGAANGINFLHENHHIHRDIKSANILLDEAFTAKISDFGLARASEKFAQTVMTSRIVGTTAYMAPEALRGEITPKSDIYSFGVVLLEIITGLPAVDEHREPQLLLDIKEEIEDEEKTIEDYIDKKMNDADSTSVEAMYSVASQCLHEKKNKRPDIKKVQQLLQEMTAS
Test: IRAK4 MSD Degradation in OCI-LY10
Type: cell-based
Settings: OCI-LY10 cells, MSD
Method in brief: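 OCI-LY10 cells exposed to 8-point 1:3 compound series (top 1 to 10 μM) for 4 to 24 h at 37 °C, 5% CO2. Lysate IRAK4 quantified by MSD sandwich immunoassay. DC50 from three-parameter logistic fit, binned A (<0.01 μM) to D (>0.2 μM or not tested).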

[1] = 4 hrs incubation, read-out: IRAK4 degradation in OCI-LY10 at 4 hrs: DC50
[2] = 24 hrs incubation, read-out: IRAK4 degradation in OCI-LY10 at 24 hrs: DC50

Structure (SMILES) | DC50 [1] [nM] | DC50 [2] [nM]
O=C1CCC(c2cccc(C#CCN3CCN(C[C@H]4CC[C@@H](n5cc(NC(=O)c6cnn7ccc(N8C[C@@H]9C[C@H]8CO9)nc67)c(C(F)F)n5)CC4)CC3)c2)C(=O)N1 (stereo partly drawn) [I-125] | > 200 | > 200
O=C1CCC(c2ccc(C#CCN3CCN(C[C@H]4CC[C@@H](n5cc(NC(=O)c6cnn7ccc(N8C[C@@H]9C[C@H]8CO9)nc67)c(C(F)F)n5)CC4)CC3)cc2)C(=O)N1 (stereo partly drawn) [I-126] | > 200 | > 200
Cn1c(=O)n(C2CCC(=O)NC2=O)c2cccc(C#CCO[C@@H]3CCCN(C[C@H]4CC[C@H](n5cc(NC(=O)c6cnn7ccc(N8C[C@H]9C[C@@H]8CO9)nc67)c(C(F)F)n5)CC4)C3)c21 (stereo partly drawn) [I-127] | 100 to 200 | > 200
Cn1c(=O)n(C2CCC(=O)NC2=O)c2cccc(C#CCO[C@H]3CCCN(C[C@H]4CC[C@H](n5cc(NC(=O)c6cnn7ccc(N8C[C@H]9C[C@@H]8CO9)nc67)c(C(F)F)n5)CC4)C3)c21 (stereo partly drawn) [I-128] | 10 to 100 | > 200
CN1C(=O)C(C2CCC(=O)NC2=O)c2cccc(N3CCN(CC4CCC(n5cc6cc(NC(=O)c7cccc(C(F)(F)F)n7)c(S(C)(=N)=O)cc6n5)CC4)CC3)c21 (stereo not drawn) [I-129] | < 10 | > 200
CC(C)(O)c1cc2nn([C@H]3CC[C@H](CN4CCC5(CC4)CC(CCNc4cccc6c4C(=O)N(C4CCC(=O)NC4=O)C6=O)C5)CC3)cc2cc1NC(=O)c1cccc(C(F)(F)F)n1 (stereo partly drawn) [I-130] | > 200 | 10 to 100
COc1cc2nn([C@H]3CC[C@H](CN4CC(c5cccc6c5n(C)c(=O)n6C5CCC(=O)NC5=O)C4)CC3)cc2cc1NC(=O)c1nc(C(C)(C)F)ccc1OC (stereo partly drawn) [I-131] | > 200 | > 200
COc1cc2nn([C@H]3CC[C@H](CN4CC(c5c(OC)ccc6c5n(C)c(=O)n6C5CCC(=O)NC5=O)C4)CC3)cc2cc1NC(=O)c1cccc(C(C)(C)F)n1 (stereo partly drawn) [I-132] | > 200 | > 200
COc1cc2nn([C@H]3CC[C@H](CN4CC(c5cccc6c5n(C)c(=O)n6C5CCC(=O)NC5=O)C4)CC3)cc2cc1NC(=O)c1cncc(C(C)(C)F)n1 (stereo partly drawn) [I-134] | > 200 | > 200
COc1cc2nn([C@H]3CC[C@H](CN4CC(c5cncc6c5n(C)c(=O)n6C5CCC(=O)NC5=O)C4)CC3)cc2cc1NC(=O)c1cccc(C(C)(C)F)n1 (stereo partly drawn) [I-135] | > 200 | > 200
COc1cc2nn([C@H]3CC[C@H](CN4CC(c5cccc6c5n(C)c(=O)n6C5CCC(=O)NC5=O)C4)CC3)cc2cc1NC(=O)c1nc(C(C)(C)F)ccc1OC (stereo partly drawn) [I-136] | > 200 | –
COc1ccc(C(F)(F)F)nc1C(=O)Nc1cc2cn([C@H]3CC[C@@H](CN4CCC5(CC4)CC(CNc4cccc6c4C(=O)N(C4CCC(=O)NC4=O)C6=O)C5)CC3)nc2cc1C(C)(C)O (stereo partly drawn) [I-137] | > 200 | 10 to 100
COc1cc2nn([C@H]3CC[C@H](CN4CCC5(CC4)CC(Oc4cccc6c4C(=O)N(C4CCC(=O)NC4=O)C6=O)C5)CC3)cc2cc1NC(=O)c1cccc(C(F)(F)F)n1 (stereo partly drawn) [I-138] | > 200 | < 10
CC(C)(O)c1cc2nn([C@H]3CC[C@H](CNCCCCCCCNc4cccc5c4C(=O)N(C4CCC(=O)NC4=O)C5=O)CC3)cc2cc1NC(=O)c1cccc(C(F)(F)F)n1 (stereo partly drawn) [I-139] | > 200 | 10 to 100
COc1cc2nn([C@H]3CC[C@H](CN4CCC5(CC4)CC(Nc4cccc6c4C(=O)N(C4CCC(=O)NC4=O)C6=O)C5)CC3)cc2cc1NC(=O)c1ccccn1 (stereo partly drawn) [I-140] | > 200 | 10 to 100
COc1cc2nn([C@H]3CC[C@H](CN4CCC5(CC4)CC(N(C)c4cccc6c4C(=O)N(C4CCC(=O)NC4=O)C6=O)C5)CC3)cc2cc1NC(=O)c1cccc(C(F)(F)F)n1 (stereo partly drawn) [I-141] | > 200 | 10 to 100
CC(C)(O)c1cc2nn(C3CCC(CNCCCCCNc4cccc5c4C(=O)N(C4CCC(=O)NC4=O)C5=O)CC3)cc2cc1NC(=O)c1cccc(C(F)(F)F)n1 (stereo not drawn) [I-142] | > 200 | < 10
CC(C)(O)c1cc2nn([C@H]3CC[C@H](CNCCCCCCNc4cccc5c4C(=O)N(C4CCC(=O)NC4=O)C5=O)CC3)cc2cc1NC(=O)c1cccc(C(F)(F)F)n1 (stereo partly drawn) [I-143] | > 200 | < 10
CC(C)(O)c1cc2nn([C@H]3CC[C@H](CNCCNc4cccc5c4C(=O)N(C4CCC(=O)NC4=O)C5=O)CC3)cc2cc1NC(=O)c1cccc(C(F)(F)F)n1 (stereo partly drawn) [I-144] | < 10 | < 10
CN(CCCCNc1cccc2c1C(=O)N(C1CCC(=O)NC1=O)C2=O)C[C@H]1CC[C@H](n2cc3cc(NC(=O)c4cccc(C(F)(F)F)n4)c(C(C)(C)O)cc3n2)CC1 (stereo partly drawn) [I-145] | < 10 | < 10

Next, values leading:

DC50 [1] [nM] | DC50 [2] [nM] | Structure (SMILES)
> 200 | 10 to 100 | CC(C)(O)c1cc2nn([C@H]3CC[C@H](CNCCCNc4cccc5c4C(=O)N(C4CCC(=O)NC4=O)C5=O)CC3)cc2cc1NC(=O)c1cccc(C(F)(F)F)n1 (stereo partly drawn) [I-146]
100 to 200 | > 200 | COc1cc2nn([C@H]3CC[C@H](CN4CCC5(CC4)CCN(c4cccc6c4n(C)c(=O)n6C4CCC(=O)NC4=O)CC5)CC3)cc2cc1NC(=O)c1cncc(OC(F)(F)F)c1 (stereo partly drawn) [I-147]
10 to 100 | > 200 | COc1cc2nn([C@H]3CC[C@H](CN4CCC5(CC4)CCN(c4cccc6c4n(C)c(=O)n6C4CCC(=O)NC4=O)CC5)CC3)cc2cc1NC(=O)c1cncc(OC(F)F)c1 (stereo partly drawn) [I-148]
< 10 | > 200 | COc1cc2nn([C@H]3CC[C@H](CN4CCC5(CC4)CCN(c4cccc6c4n(C)c(=O)n6C4CCC(=O)NC4=O)CC5)CC3)cc2cc1NC(=O)c1cncc(SC)c1 (stereo partly drawn) [I-149]
10 to 100 | > 200 | COc1cc2nn([C@H]3CC[C@H](CN4CCC5(CC4)CCN(c4cccc6c4n(C)c(=O)n6C4CCC(=O)NC4=O)CC5)CC3)cc2cc1NC(=O)c1cncc([S+](C)[O-])c1 (stereo partly drawn) [I-150]
> 200 | > 200 | COc1cc2nn([C@H]3CC[C@H](CN4CCC5(CC4)CCN(c4cccc6c4n(C)c(=O)n6C4CCC(=O)NC4=O)CC5)CC3)cc2cc1NC(=O)c1cncc(S(C)(=O)=O)c1 (stereo partly drawn) [I-151]
> 200 | > 200 | COc1cc2nn([C@H]3CC[C@H](CN4CCC5(CC4)CCN(c4cccc6c4n(C)c(=O)n6C4CCC(=O)NC4=O)CC5)CC3)cc2cc1NC(=O)c1cncc(SC(F)(F)F)c1 (stereo partly drawn) [I-152]
> 200 | > 200 | COc1cc2nn([C@H]3CC[C@H](CN4CCC5(CC4)CCN(c4cccc6c4n(C)c(=O)n6C4CCC(=O)NC4=O)CC5)CC3)cc2cc1NC(=O)c1cncc([S+]([O-])C(F)(F)F)c1 (stereo partly drawn) [I-153]
> 200 | > 200 | COc1cc2nn([C@H]3CC[C@H](CN4CCC5(CC4)CCN(c4cccc6c4n(C)c(=O)n6C4CCC(=O)NC4=O)CC5)CC3)cc2cc1NC(=O)c1cncc(S(=O)(=O)C(F)(F)F)c1 (stereo partly drawn) [I-154]
< 10 | > 200 | COc1cc2nn([C@H]3CC[C@H](CN4CCC5(CC4)CCN(c4cccc6c4n(C)c(=O)n6C4CCC(=O)NC4=O)CC5)CC3)cc2cc1NC(=O)c1cncc(C(F)(F)F)n1 (stereo partly drawn) [I-155]
> 200 | 10 to 100 | COc1cc2nn([C@H]3CC[C@H](CN4CCC5(CC4)CCN(c4cccc6c4n(C)c(=O)n6C4CCC(=O)NC4=O)CC5)CC3)cc2cc1NC(=O)c1cncc(C#N)c1 (stereo partly drawn) [I-156]
< 10 | > 200 | COc1cc2nn([C@H]3CC[C@H](CN4CCC5(CC4)CCN(c4cccc6c4n(C)c(=O)n6C4CCC(=O)NC4=O)CC5)CC3)cc2cc1NC(=O)c1nn(C)cc1Cl (stereo partly drawn) [I-157]
